pIC50: −log10 of the molar value.
These compounds were tested against T1, catalytic domain of the recombinant TACE protein (Homo sapiens, UniProt P78536) (assay: TACE FRET assay using TACE cat). Settings: not given.
T1 construct: The catalytic domain of the recombinant TACE protein was expressed and purified; made in house
Type: biochemical
Method: TACE FRET Assay Using TACE Cat
“K” is the IC50. Generally, “n” and “B” are floated, noting that n (Hill slope) should be close to 1 and B (background offset) to 0.
Pro-TNF-α substrate peptide Abz-[…]-Dpa (AnaSpec, San Jose, Calif., WARC-1) was prepared as a 2 mM stock solution in the TACE assay buffer (50 mM Tris-HCl, pH 7.4, 25 mM NaCl, 4% Glycerol, 0.005% Brij 35). The catalytic domain of the recombinant TACE protein was expressed and purified. The TACE protein (1 ug/ml) was pretreated with the inhibitors at various concentrations for 10 min. at room temperature. The reaction was initiated by the addition of the substrate peptide. […] The initial rate (slope) of the reaction was determined using a fluorescence plate reader (Molecular Devices, Spectra Max Gemini XS).

T1 sequence (P78536 223-474 limits assumed): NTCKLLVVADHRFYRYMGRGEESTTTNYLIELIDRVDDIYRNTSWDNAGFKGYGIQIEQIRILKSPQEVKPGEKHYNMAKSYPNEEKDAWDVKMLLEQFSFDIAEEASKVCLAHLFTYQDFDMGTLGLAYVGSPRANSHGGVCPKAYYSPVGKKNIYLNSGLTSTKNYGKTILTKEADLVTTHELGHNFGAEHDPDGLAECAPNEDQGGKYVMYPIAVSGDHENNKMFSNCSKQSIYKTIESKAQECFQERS

Compound CC#CCOc1ccc(S(=O)(=O)N[C@H](Cc2cn(Cc3ccc(C#N)cc3)c3ccccc23)C(=O)O)cc1 [Example 45, N-{[4-(but-2-ynyloxy)phenyl]sulfonyl}-1-(4-cyanobenzyl)-D-tryptophan] has a pIC50 of 5.39.

Same assay, conditions: TACE FRET assay, catalytic domain of recombinant TACE; read-out: TACE IC50

For “N-{[4-(but-2-ynyloxy)phenyl]sulfonyl}-methoxy-L(or D)-tryptophan [Example 222]”, the pIC50 was 5.00.

Same assay, conditions: read-out: TACE Inhibition (%)

In order of falling inhibition at 1 µM:
1. CC#CCOc1ccc(S(=O)(=O)N[C@@H](Cc2c(C)n(Cc3ccc(OC)cc3)c3ccc(OC)cc23)C(=O)O)cc1 [Example 191, N-{[4-(but-2-ynyloxy)phenyl]sulfonyl}-5-methoxy-1-(4-methoxybenzyl)-2-methyltryptophan]  77.5%
2. CC#CCOc1ccc(S(=O)(=O)N[C@@H](Cc2c(C)n(Cc3cccc(C(F)(F)F)c3)c3ccccc23)C(=O)O)cc1 [Example 149, N-{[4-(but-2-ynyloxy)phenyl]sulfonyl}-2-methyl-1-[3-(trifluoromethyl)benzyl]tryptophan]  50.5%
3. CC#CCOc1ccc(S(=O)(=O)N[C@@H](Cc2cn(Cc3cc(F)cc(F)c3)c3ccc(OC)cc23)C(=O)O)cc1 [Example 61, N-{[4-(but-2-ynyloxy)phenyl]sulfonyl}-1-(3,5-difluorobenzyl)-5-methoxytryptophan]  39.5%
4. CC#CCOc1ccc(S(=O)(=O)N[C@@H](Cc2cn(Cc3ccc(C(F)(F)F)cc3)c3ccc(OC)cc23)C(=O)O)cc1 [Example 57, N-{[4-(but-2-ynyloxy)phenyl]sulfonyl}-5-methoxy-1-[4-(trifluoromethyl)benzyl]tryptophan]  32.1%
5. CC#CCOc1ccc(S(=O)(=O)N[C@@H](Cc2cn(Cc3ccc(OC)cc3)c3ccc(OC)cc23)C(=O)O)cc1 [Example 53, N-{[4-(but-2-ynyloxy)phenyl]sulfonyl}-5-methoxy-1-(4-methoxybenzyl)tryptophan]  30.6%
6. CC#CCOc1ccc(S(=O)(=O)N[C@@H](Cc2cn(Cc3ccc(C(F)(F)F)cc3)c3ccc(Cl)cc23)C(=O)O)cc1 [Example 77, N-{[4-(but-2-ynyloxy)phenyl]sulfonyl}-5-chloro-1-[4-(trifluoromethyl)benzyl]tryptophan]  29.8%
7. CC#CCOc1ccc(S(=O)(=O)N[C@@H](Cc2cn(Cc3ccc(C(C)C)cc3)c3ccc(OC)cc23)C(=O)O)cc1 [Example 63, N-{[4-(but-2-ynyloxy)phenyl]sulfonyl}-1-(4-isopropylbenzyl)-5-methoxytryptophan]  28.2%
8. CC#CCOc1ccc(S(=O)(=O)N[C@@H](Cc2cn(Cc3ccccc3C)c3ccc(Cl)cc23)C(=O)O)cc1 [Example 72, N-{[4-(but-2-ynyloxy)phenyl]sulfonyl}-5-chloro-1-(2-methylbenzyl)tryptophan]  27.5%
9. CC#CCOc1ccc(S(=O)(=O)N[C@@H](Cc2cn(Cc3ccc(OC)cc3)c3ccc(Cl)cc23)C(=O)O)cc1 [Example 76, N-{[4-(but-2-ynyloxy)phenyl]sulfonyl}-5-chloro-1-(4-methoxybenzyl)tryptophan]  18.3%
10. CC#CCOc1ccc(S(=O)(=O)N[C@@H](Cc2cn(Cc3ccccc3OC)c3ccc(C#N)cc23)C(=O)O)cc1 [Example 137, N-{[4-(but-2-ynyloxy)phenyl]sulfonyl}-5-cyano-1-(2-methoxybenzyl)tryptophan]  12.1%
11. CC#CCOc1ccc(S(=O)(=O)N[C@@H](Cc2cn(Cc3cccc(C)c3)c3ccc(C(=O)O)cc23)C(=O)O)cc1 [Example 105, N-{[4-(but-2-ynyloxy)phenyl]sulfonyl}-5-carboxy-1-(3-methylbenzyl)tryptophan]  11%
12. CC#CCOc1ccc(S(=O)(=O)N[C@@H](Cc2cn(Cc3ccc(F)cc3)c3ccc(C(=O)O)cc23)C(=O)O)cc1 [Example 117, N-{[4-(but-2-ynyloxy)phenyl]sulfonyl}-5-carboxy-1-(4-fluorobenzyl)tryptophan]  10.9%
13. CC#CCOc1ccc(S(=O)(=O)N[C@@H](Cc2cn(Cc3ccc(OC)cc3)c3ccc(C(=O)O)cc23)C(=O)O)cc1 [Example 109, N-{[4-(but-2-ynyloxy)phenyl]sulfonyl}-5-carboxy-1-(4-methoxybenzyl)tryptophan]  7.93%
